# T1: GPR1 (human, UniProt P46091 1-355)
# T1 construct: GPR1, human chemerin receptor, expressed on CHO-K1 cells; The functional rows with G protein biosensors (HEK293T, transfected) and with MEF cells also use this molecule; source: CHO-K1, stably expressing (Clone 8), on cells
# T1 sequence (looked up): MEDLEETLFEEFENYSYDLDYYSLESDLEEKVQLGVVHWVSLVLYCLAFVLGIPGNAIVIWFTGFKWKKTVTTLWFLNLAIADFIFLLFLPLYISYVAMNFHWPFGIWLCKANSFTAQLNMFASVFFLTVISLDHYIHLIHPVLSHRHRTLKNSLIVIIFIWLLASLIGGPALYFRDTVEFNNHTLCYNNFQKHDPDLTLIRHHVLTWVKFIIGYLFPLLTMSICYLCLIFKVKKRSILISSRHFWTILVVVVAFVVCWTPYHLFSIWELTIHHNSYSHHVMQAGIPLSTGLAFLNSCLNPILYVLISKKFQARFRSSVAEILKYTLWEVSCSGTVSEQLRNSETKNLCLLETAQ
# T2: CCRL2 (human, UniProt O00421 1-344)
# T2 construct: CCRL2, human chemerin receptor, expressed on CHO-K1 cells; The functional row with G protein biosensors (HEK293T, transfected) also uses this molecule; source: CHO-K1, stably expressing (Clone12), on cells
# T2 sequence (looked up): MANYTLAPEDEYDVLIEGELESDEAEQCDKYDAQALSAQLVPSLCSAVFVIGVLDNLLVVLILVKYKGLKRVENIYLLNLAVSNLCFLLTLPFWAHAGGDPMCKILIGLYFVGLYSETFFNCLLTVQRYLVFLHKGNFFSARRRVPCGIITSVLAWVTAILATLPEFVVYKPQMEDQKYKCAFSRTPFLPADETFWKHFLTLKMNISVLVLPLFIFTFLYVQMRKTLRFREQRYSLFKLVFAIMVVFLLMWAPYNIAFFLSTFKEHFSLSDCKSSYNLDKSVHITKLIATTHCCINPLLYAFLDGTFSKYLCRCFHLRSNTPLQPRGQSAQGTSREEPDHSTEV
# How the values were obtained:
# [1] = tested on: CCRL2; experiment: Radiolabelled chemerin internalization (acid-wash), CCRL2; type: cell-based, human; details: CCRL2, CHO-K1; incubation at 28°C
# Experimental: Cell surface receptor was detected by flow cytometry using a saturating concentration of antibodies specific for CMKLR1 (●), GPR1 (◯) or CCRL2 (△). Results were normalized for the fluorescence of unstimulated cells (100%) and for background fluorescence (0%). Data represent the mean ± S.E.M. of three independent experiments. […] Then, cells were either left at 4°C or shifted to 28°C to allow receptor internalization. After 90 minutes, cells were acid-washed and the amount of radioactivity remaining associated with the cells was measured. Data represent the mean ± S.E.M. of three independent experiments.
# [2] = tested on: CCRL2; details: cited from earlier work; for calcium mobilization and chemotaxis through CCRL2: ref [20], not confirmed by other groups [23]
# Description: (§1) […]. CMKLR1 is coupled to the Gi/o family of G proteins and in cells ...
# [3] = tested on: leukocyte populations that express CMKLR1; details: ex vivo; dendritic cells, macrophages and natural killer cells; ref [1],[8]–[10]; cited from earlier work
# Description: as §1
# [4] = tested on: CMKLR1; details: cited from earlier work
# Description: as §1
# [5] = tested on: GPR1; details: ref [13], cited from earlier work
# Description: as §1
# [6] = tested on: CCRL2; experiment: ERK1/2 phosphorylation in CHO-K1 cells, CCRL2; type: cell-based, human; details: 300 nM chemerin, immunoblot
# Experimental: CHO-K1 and MEF cells stably expressing receptors of interest were starved for 12–18 h in serum-free medium prior to stimulation. […] Whole cell lysates were resolved on 10% Tris/Tricine polyacrylamide gels and transferred to nitrocellulose membranes. Phosphorylated ERK1/2 and total ERK1/2 were detected by using rabbit polyclonal anti-phospho-ERK1/2 (Cell Signaling #4370, 1:1,000) and anti-ERK1/2 (Cell Signaling #4695S, 1:2,000) antibodies. Chemiluminescent detection was performed using ECL-Plus reagent (Perkin Elmer).
# (§2) A. Calcium mobilization was measured in CHO-K1 cells using the aequorin-based functional assay. […] The results were normalized for the basal luminescence of the cells in absence of agonist (0%) and the maximal response obtained for each cell line with 10 μM ATP (100%). […] Data represent the mean ± S.E.M. of three independent experiments C. […] Detection of total ERK1/2 by Western blotting was used to ascertain that an equal amount of material was loaded in each lane (lower panel). A typical experiment out of three performed independently is shown.
# [7] = tested on: GPR44/CRTH2; experiment: G protein BRET assay, negative control GPR44/CRTH2; type: cell-based; details: HEK293T, 100 nM chemerin, 1 minute
# Experimental: (§3) G protein activation was assayed by BRET as previously described. Briefly, plasmids encoding G protein biosensors and receptors of interest were co-transfected into HEK293T cells by using the calcium phosphate method. Forty-eight hours after transfection, cells were washed twice with PBS, detached and resuspended in PBS plus 0.1% (w/v) glucose at room temperature. Cells were then distributed (80 μg of proteins per well) in a 96-well microplate (Optiplate, PerkinElmer). BRET^2 between RLuc8 and GFP10 was measured 1 min after addition of coelenterazine 400a/Deep blue C (5 μM, Gentaur). BRET readings were collected using an Infinite F200 reader (Tecan). The BRET signal was calculated as the ratio of emission of GFP10 (510–540 nm) to RLuc8 (370–450 nm).
# (§4) As controls, cells expressing the α2c adrenergic receptor (Gαi/o) were stimulated with UK14304; cells expressing the AT1 angiotensin receptor (Gα11/q) were stimulated with angiotensin II; cells expressing the β2 adrenergic receptor (Gαs) were stimulated with isoproterenol; cells expressing thromboxane A2 receptor (Gα12/13) were stimulated with U46619. Data represent the mean ± S.E.M. of three to six independent experiments. Statistical significance was assessed using Tukey's test (***P < 0.0001).
# [8] = tested on: GPR33; experiment: G protein BRET assay, negative control GPR33; type: cell-based; details: HEK293T, 100 nM chemerin, 1 minute
# Experimental: as §3, §4
# [9] = tested on: CCRL2; experiment: β-arrestin BRET recruitment assay, CCRL2; type: cell-based, human; details: β-arrestin1-Rluc or β-arrestin2-Rluc, CCRL2-Venus, HEK293T; 100 nM chemerin; 25°C
# Experimental: β-arrestin recruitment was measured by a BRET proximity assay as previously described. Briefly, plasmids encoding Rluc-β-arrestin 2 and receptors fused to Venus were cotransfected into HEK293T cells by using the calcium phosphate method. Twenty-four hours post-transfection, cells were collected and seeded in 96-well microplates (165306, Nunc) and cultured for an additional 24 h. Cells were then rinsed once with PBS and incubated in PBS plus 0.1% (w/v) glucose at 25°C to slow down kinetics of arrestin recruitment and improve temporal resolution. BRET^1 between RLuc and YFP was measured after the addition of coelenterazine h (5 μM, Promega). […] The BRET signal was calculated as the ratio of emission of YFP (520–570 nm) to RLuc (370–480 nm).
# Fig 6 Recruitment of β-arrestins by CMKLR1 and GPR1. […] Data represent the mean ± S.E.M. of three independent experiments.
# [10] = tested on: CCRL2; experiment: Intracellular calcium mobilization (aequorin), CCRL2; type: cell-based, human; details: CCRL2, CHO-K1, aequorin
# Experimental: Calcium mobilization was measured by an aequorin-based assay as previously described. Briefly, CHO-K1 cells stably expressing apoaequorin and the receptors of interest were incubated for 4 h in the dark in the presence of 5 μM coelenterazine h (Promega) and then diluted before use to reach the appropriate cell density.
# as §2
# [11] = tested on: FPR1; experiment: G protein BRET assay, negative control FPR1; type: cell-based; details: HEK293T, 100 nM chemerin, 1 minute
# Experimental: as §3, §4
# [12] = tested on: CCRL2; experiment: G protein BRET assay, CCRL2; type: cell-based, human; details: CCRL2, HEK293T; 100 nM chemerin, 1 minute
# Experimental: as §3, §4
# [13] = target: T1, GPR1; experiment: radioligand binding; competition: CHO-K1 cells expressing the receptor with 0.1 nM [125I]-chemerin as tracer and increasing concentrations of unlabelled chemerin or chemerin 9; 50 mM HEPES pH 7.4, 1 mM CaCl2, 5 mM MgCl2, 250 mM sucrose, 0.5% BSA; 30 min at room temperature; filtration; details: one partner purified
# [14] = target: T2, CCRL2; experiment: as above; details: one partner purified
# [15] = target: T2, CCRL2; experiment: cell-based or functional assay
molecule,measurement,setting,value
"[^125I]-chemerin: R&DSystems, custom labelling performed by Perkin Elmer; tracer",radioactivity lost after acid-wash (chemerin internalization),[1],nearly all the radioactivity associated to cells expressing CCLR2 was lost after the acid-wash procedure
CCL2: chemokine,calcium mobilization and chemotaxis through CCRL2,[2],promotes calcium mobilization and chemotaxis
"Chemerin: small chemotactic protein, natural ligand of CMKLR1; purchased from R&D Systems",calcium mobilization or ligand internalization,"[2]; CCRL2, chemerin, ref [11]",does not induce calcium mobilization or ligand internalization
same,chemotaxis,[3],promotes chemotaxis of leukocyte populations that express CMKLR1
same,recruitment of β-arrestin2 to CMKLR1,"[4]; introduction, no reference given",induces the recruitment of β-arrestin2 to CMKLR1
same,signaling in cells expressing CMKLR1,[4]; ref [7],"inhibits cAMP production and promotes phospholipase C activation, IP3 release, calcium mobilization as well as activation of PI3K and MAPK pathways"
same,calcium mobilization,"[5]; GPR1, recombinant cell lines",activate weakly calcium mobilization in recombinant cell lines
same,down-regulation of GPR1,[5],induces its rapid down-regulation
same,phosphorylation of ERK1/2,[6],generated no detectable signals
same,G protein BRET signal (Gαi/o biosensors),[7],generated signals of much weaker magnitude
same,G protein BRET signal (Gαi/o biosensors),[8],generated signals of much weaker magnitude
same,β-arrestin recruitment,[9],CCRL2 does not recruit β-arrestins
same,calcium mobilization,[10],generated no detectable signals
same,G protein BRET signal (Gαi/o biosensors),[11],generated signals of much weaker magnitude
same,G protein activation,[12],none of the G proteins tested were activated by GPR1 or CCRL2 upon chemerin stimulation
CCL7: chemokine,calcium mobilization and chemotaxis through CCRL2,[2],promotes calcium mobilization and chemotaxis
"Chemerin (unlabelled) (ligand, human, UniProt Q99969 21-157, looked up, chemerin, human; also called full length chemerin; full size chemerin; source: bought: R&D Systems) ELTEAQRRGLQVALEEFHKHPPVQWAFQETSVESAVDTPFPAGIFVRLEFKLQQTSCRKRDWKKPECKVRPNGRKRKCLACIKLGSEDKVLGRLVHCPIETQVLREAEEHQETQCLRVQRAGEDPHSFYFPGQFAFS",pIC50,[13],9.9
same,pIC50,[14],9.1
same,"t1/2 of down-regulation of the receptor from the cell surface (FACS, CHO-K1, 100 nM chemerin)",[15],> 1 h
"CCL8: chemokine (protein, UniProt P80075 24-99, looked up) C-C motif chemokine 8: QPDSVSIPITCCFNVINRKIPIQRLESYTRITNIQCPKEAVIFKTKRGKEVCADPKERWVRDSMKHLDQIFQNLKP",calcium mobilization and chemotaxis through CCRL2,[2],promotes calcium mobilization and chemotaxis
"CCL5: chemokine (protein, UniProt P13501 24-91, looked up) C-C motif chemokine 5: SPYSSDTTPCCFAYIARPLPRAHIKEYFYTSGKCSNPAVVFVTRKNRQVCANPEKKWVREYINSLEMS",calcium mobilization and chemotaxis through CCRL2,[2],promotes calcium mobilization and chemotaxis
